For data set [1] the following is noted: for surface tension liquid-gas: Wilhelmy plate method; for viscosity: 101.3 kPa, Liquid, Concentric cylinders viscometry.
A short description of data set [2]: refractive index (Na D-line) (dimensionless). Particulars: 293.15 K; 101.33 kPa; Liquid; Standard Abbe refractometry.
Data set [3] is described as follows: xn = mol fraction of the nth substance listed. Conditions: x1 = 1; for surface tension liquid-gas: Wilhelmy plate method; for viscosity: 101.3 kPa, Liquid, Concentric cylinders viscometry.

In the NIST ThermoML archive (doi:10.1016/j.jct.2014.03.022) one finds surface tension liquid-gas, viscosity and refractive index data, which are given here for seven compounds.

Usually surface tension liquid-gas stands for the work needed to enlarge the surface of a liquid by unit area. Usually viscosity stands for the resistance of a fluid to flow. For orientation: refractive index means a measure of how strongly the sample bends light.

Each structure is given as a SMILES string. ± gives the expanded uncertainty stated by the source.

On to `CCCCCCCCCCO` [decan-1-ol], for which the surface tension liquid-gas in data set [1] (298.15 K) was determined as 28.35 ± 0.52 mN/m; in data set [1] (303.15 K), 27.29 ± 0.52 mN/m; in data set [1] (308.15 K), 26.23 ± 0.52 mN/m; in data set [1] (313.15 K), 25.17 ± 0.52 mN/m. Besides, the viscosity is 11.83 ± 0.25 mPa·s in data set [1] (298.15 K), 9.754 ± 0.2 mPa·s in data set [1] (303.15 K), 8.135 ± 0.17 mPa·s in data set [1] (308.15 K) and 6.842 ± 0.14 mPa·s in data set [1] (313.15 K). The refractive index in data set [2] is listed as 1.437 ± 0.001.

With `CN(C)C=O` [dimethylformamide] + CCCCCCCCCO, the surface tension liquid-gas in data set [3] (298.15 K) is recorded as 35.2 ± 0.5 mN/m; in data set [3] (303.15 K) it was 34.1 ± 0.5 mN/m; in data set [3] (308.15 K), 33 ± 0.5 mN/m; in data set [3] (313.15 K), 32 ± 0.5 mN/m. Moreover, the viscosity in data set [3] (298.15 K) was determined as 0.8162 ± 0.017 mPa·s; in data set [3] (303.15 K) it was 0.7678 ± 0.016 mPa·s; in data set [3] (308.15 K) it was 0.7262 ± 0.016 mPa·s; in data set [3] (313.15 K), 0.678 ± 0.015 mPa·s.

As for `CN(C)C=O` [dimethylformamide] + CCCCCCCCCCO, the surface tension liquid-gas in data set [3] (298.15 K) is 35.2 ± 0.5 mN/m; in data set [3] (303.15 K) it was 34.1 ± 0.5 mN/m; in data set [3] (308.15 K) it was 33 ± 0.5 mN/m; in data set [3] (313.15 K) it was 32 ± 0.5 mN/m. The viscosity in data set [3] (298.15 K) is recorded as 0.8162 ± 0.017 mPa·s; in data set [3] (303.15 K), 0.7678 ± 0.016 mPa·s; in data set [3] (308.15 K), 0.7262 ± 0.016 mPa·s; in data set [3] (313.15 K), 0.678 ± 0.015 mPa·s.

For the compound `CN(C)C=O` [dimethylformamide], the surface tension liquid-gas in data set [1] (298.15 K) came to 35.2 ± 0.5 mN/m; in data set [1] (303.15 K), 34.1 ± 0.5 mN/m; in data set [1] (308.15 K), 33 ± 0.5 mN/m; in data set [1] (313.15 K), 32 ± 0.5 mN/m. Further, the viscosity in data set [1] (298.15 K) was determined as 0.8162 ± 0.017 mPa·s; in data set [1] (303.15 K) it was 0.7678 ± 0.016 mPa·s; in data set [1] (308.15 K) it was 0.7262 ± 0.016 mPa·s; in data set [1] (313.15 K), 0.678 ± 0.015 mPa·s. The refractive index in data set [2] worked out at 1.429 ± 0.001.

On to `CN(C)C=O` [dimethylformamide] + CCCCCCCCO, for which the surface tension liquid-gas in data set [3] (298.15 K) is recorded as 35.2 ± 0.5 mN/m; in data set [3] (303.15 K), 34.1 ± 0.5 mN/m; in data set [3] (308.15 K), 33 ± 0.5 mN/m; in data set [3] (313.15 K), 32 ± 0.5 mN/m. For the same compound, the viscosity in data set [3] (298.15 K) was determined as 0.8162 ± 0.017 mPa·s; in data set [3] (303.15 K), 0.7678 ± 0.016 mPa·s; in data set [3] (308.15 K), 0.7262 ± 0.016 mPa·s; in data set [3] (313.15 K), 0.678 ± 0.015 mPa·s.

With `CCCCCCCCO` [octan-1-ol], the surface tension liquid-gas in data set [1] (298.15 K) was 27.47 ± 0.52 mN/m; in data set [1] (303.15 K), 26.42 ± 0.52 mN/m; in data set [1] (308.15 K), 25.41 ± 0.52 mN/m; in data set [1] (313.15 K), 24.38 ± 0.52 mN/m. Besides, the viscosity in data set [1] (298.15 K) was 7.661 ± 0.16 mPa·s; in data set [1] (303.15 K), 6.402 ± 0.13 mPa·s; in data set [1] (308.15 K), 5.425 ± 0.11 mPa·s; in data set [1] (313.15 K), 4.628 ± 0.097 mPa·s. Further, the refractive index in data set [2] is listed as 1.429 ± 0.001.

As for `CCCCCCCCCO` [nonan-1-ol], the surface tension liquid-gas in data set [1] (298.15 K) turned out to be 27.58 ± 0.57 mN/m; in data set [1] (303.15 K), 26.53 ± 0.57 mN/m; in data set [1] (308.15 K), 25.49 ± 0.56 mN/m; in data set [1] (313.15 K), 24.44 ± 0.56 mN/m. The viscosity in data set [1] (298.15 K) is given as 9.715 ± 0.22 mPa·s; in data set [1] (303.15 K) it was 7.927 ± 0.18 mPa·s; in data set [1] (308.15 K), 6.664 ± 0.15 mPa·s; in data set [1] (313.15 K), 5.645 ± 0.13 mPa·s. Further, the refractive index in data set [2] was 1.433 ± 0.001.
